Experimental data: patent US20150105252A1, “SUBSTITUTED PYRAZOLES AS HERBICIDES” (E I DU PONT DE NEMOURS AND COMPANY, priority 2013, published 2015)

Experiments:
barnyardgrass [1] = assay: Test A preemergence; format: in vivo, Echinochloa crus-galli; conditions: preemergence
Procedure, shortened: (§1)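 Greenhouse test in loam soil/sand blend; compounds formulated in non-phytotoxic solvent with surfactant, applied as preemergence directed soil spray or postemergence to plants 2–10 cm tall at one- to two-leaf stage. Injury rated visually versus untreated controls after approximately 10 days on a 0 (no effect) to 100 (complete control) scale.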

barnyardgrass [2] = assay: Test B flood; format: in vivo, Echinochloa crus-galli; conditions: 250 g ai/ha, visual rating on 0 to 100 scale (0 no effect, 100 complete control), 13 to 15 days
Procedure, shortened: (§2)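 2-leaf plants; pots flooded 3 cm over soil; compound added to paddy water, depth kept constant. Greenhouse 13–15 d. Visual rating vs controls, 0–100 scale (100 = complete control); dash = no result.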

pigweed [3] = assay: Test A preemergence; format: in vivo, Amaranthus retroflexus; conditions: preemergence
Procedure, shortened: as §1

pigweed [4] = assay: Test C preemergence; format: in vivo, Amaranthus retroflexus
Procedure, shortened: (§3)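 Scores of 0 (no effect) to 100 (complete control) were assigned by eye after 13–15 days, comparing treated pots with controls. Soil-applied (preemergence) treatments went onto seeds in loam and sand; foliar (postemergence) treatments onto 1- to 4-leaf plants in peat medium.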

johnsongrass = assay: Test C preemergence; format: in vivo, Sorghum halepense
Text: (§4) Seeds of plant species selected from blackgrass (Alopecurus myosuroides), ryegrass, Italian (Italian ryegrass, Lolium multiflorum), wheat (winter wheat, Triticum aestivum), galium (catchweed bedstraw, Galium aparine), corn (Zea mays), crabgrass, large (large crabgrass, Digitaria sanguinalis), foxtail, giant (giant foxtail, Setaria faberii), johnsongrass (Sorghum halepense), lambsquarters (Chenopodium album), morningglory (Ipomoea coccinea), nutsedge, yellow (yellow nutsedge, Cyperus esculentus), pigweed (redroot pigweed, Amaranthus retroflexus), ragweed (common ragweed, Ambrosia elation), soybean (Glycine max), barnyardgrass (Echinochloa crus-galli), oilseed rape (Brassica napus), waterhemp (common waterhemp, Amaranthus rudis), oat, wild (wild oat, Avena fatua), kochia (Kochia scoparia), Surinam grass (Brachiaria decumbens), foxtail, green (green foxtail, Setaria viridis), goosegrass (Eleusine indica), bromegrass, downy (downy bromegrass, Bromus tectorum), nightshade (eastern black nightshade, Solanum ptycanthum), cocklebur (common cocklebur, Xanthium strumarium), cupgrass, woolly (woolly cupgrass, Eriochloa villosa), bermudagrass (Cynodon dactylon), sunflower, (common oilseed sunflower, Helianthus annuus), Russian thistle (Salsola kali), and velvetleaf (Abutilon theophrasti) were planted into a blend of loam soil and sand and treated preemergence with test chemicals formulated in a non-phytotoxic solvent mixture which included a surfactant.
(§5) At the same time, plants selected from these crop and weed species and also chickweed (common chickweed, Stellaria media), canarygrass (littleseed canarygrass, Phalaris minor), and deadnettle (henbit deadnettle, Lamium amplexicaule), were planted in pots containing Redi-Earth® planting medium (Scotts Company, 14111 Scottslawn Road, Marysville, Ohio 43041) comprising spaghnum peat moss, vermiculite, wetting agent and starter nutrients and treated with postemergence applications of test chemicals formulated in the same manner. Plants ranged in height from 2 to 18 cm (1- to 4-leaf stage) for postemergence treatments. Treated plants and controls were maintained in a greenhouse for 13 to 15 days, after which time all species were compared to controls and visually evaluated. Plant response ratings, summarized in Table C, are based on a scale of 0 to 100 where 0 is no effect and 100 is complete control. A dash (-) response means no test result.

crabgrass, large = assay: Test C preemergence; format: in vivo, Digitaria sanguinalis
Procedure, shortened: as §3

rice = assay: Test B flood; format: in vivo, Oryza sativa; conditions: 250 g ai/ha, visual rating on 0 to 100 scale (0 no effect, 100 complete control), 13 to 15 days
Procedure, shortened: as §2

ryegrass, Italian = assay: Test C preemergence; format: in vivo, Lolium multiflorum
Text: as §4, §5

corn = assay: Test A postemergence; format: in vivo, Zea mays
Procedure, shortened: as §1

barnyardgrass [5] = assay: Test A postemergence; format: in vivo, Echinochloa crus-galli
Procedure, shortened: as §1

velvetleaf = assay: Test A postemergence; format: in vivo, Abutilon theophrasti
Procedure, shortened: as §1

foxtail, giant = assay: Test A postemergence; format: in vivo, Setaria faberii
Procedure, shortened: as §1

morningglory = assay: Test C preemergence; format: in vivo, Ipomoea coccinea
Procedure, shortened: as §3

blackgrass = assay: Test C preemergence; format: in vivo, Alopecurus myosuroides
Procedure, shortened: as §3

[6] = 125 g ai/ha, visual injury, 0 to 100 scale, approx. 10 days
[7] = 500 g ai/ha, visual injury after approx. 10 days, 0 to 100 scale (0 no effect, 100 complete control)
[8] = preemergence, 31 g ai/ha, visual rating, scale 0 to 100 (0 no effect, 100 complete control), 13 to 15 days
[9] = preemergence, 62 g ai/ha, 13 to 15 days, scale 0 to 100, 0 = no effect, 100 = complete control
[10] = preemergence, 125 g ai/ha, scale 0 to 100, 0 is no effect, 100 is complete control
[11] = Postemergence, 500 g ai/ha, visual rating after approx. 10 days, 0 to 100 scale (0 no effect, 100 complete control)
[12] = postemergence, 125 g ai/ha, about 10 days, visual rating on 0 to 100 scale (0 no effect, 100 complete control)

CCCc1cc(C(=O)NCC)nn1Cc1ccnc(C(F)(F)F)c1 [Compound 95]
Barnyardgrass plant response rating (barnyardgrass [1]; [6]): 100 | Barnyardgrass plant response rating (barnyardgrass [1]; [7]): 100 | Plant response rating, Barnyardgrass (barnyardgrass [2]): 40 | Pigweed plant response rating (pigweed [3]; [6]): 100 | Pigweed plant response rating (pigweed [3]; [7]): 100 | Plant response rating (scale of 0 to 100), Pigweed (pigweed [4]; Preemergence, 250 g ai/ha): 100 | Pigweed plant response rating (pigweed [4]; [8]): 100 | Plant response rating, Pigweed (pigweed [4]; [9]): 100 | Pigweed plant response rating (pigweed [4]; [10]): 100 | Plant response rating (scale of 0 to 100), Johnsongrass (johnsongrass; Preemergence, 250 g ai/ha): 100 | Johnsongrass plant response rating (johnsongrass; [8]): 60 | Plant response rating, Johnsongrass (johnsongrass; [9]): 85 | Johnsongrass plant response rating (johnsongrass; [10]): 95 | Plant response rating (scale of 0 to 100), Crabgrass, Large (crabgrass, large; Preemergence, 250 g ai/ha): 100 | Crabgrass, Large plant response rating (crabgrass, large; [8]): 98 | Plant response rating, Crabgrass, Large (crabgrass, large; [9]): 98 | Crabgrass, Large plant response rating (crabgrass, large; [10]): 98 | Plant response rating, Rice (rice): 20 | Plant response rating (scale of 0 to 100), Ryegrass, Italian (ryegrass, Italian; Preemergence, 250 g ai/ha): 100 | Ryegrass, Italian plant response rating (ryegrass, Italian; [8]): 50 | Plant response rating, Ryegrass, Italian (ryegrass, Italian; [9]): 85 | Ryegrass, Italian plant response rating (ryegrass, Italian; [10]): 95 | Corn plant response rating (corn; [11]): 100 | Corn plant response rating (corn; [12]): 80 | Barnyardgrass plant response rating (barnyardgrass [5]; [11]): 100 | Barnyardgrass plant response rating (barnyardgrass [5]; [12]): 90 | Velvetleaf plant response rating (velvetleaf; [11]): 100 | Velvetleaf plant response rating (velvetleaf; [12]): 90 | Foxtail, Giant plant response rating (foxtail, giant; [11]): 100 | Foxtail, Giant plant response rating (foxtail, giant; [12]): 100 | Plant response rating (scale of 0 to 100), Morningglory (morningglory; Preemergence, 250 g ai/ha): 100 | Morningglory plant response rating (morningglory; [8]): 100 | Plant response rating, Morningglory (morningglory; [9]): 100 | Morningglory plant response rating (morningglory; [10]): 100 | Plant response rating (scale of 0 to 100), Blackgrass (blackgrass; Preemergence, 250 g ai/ha): 100 | Blackgrass plant response rating (blackgrass; [8]): 100 | Plant response rating, Blackgrass (blackgrass; [9]): 100 | Blackgrass plant response rating (blackgrass; [10]): 100
